pEC50: −log10 of the molar value. ≈ marks a conversion by molar mass, not a printed value. Entries after “also recorded” stand apart in the source; their conditions may differ.
Columns and labels:
KLF15 promoter [1] = assay: KLF15 reporter human podocyte assay (HTS, dose-response, primary screening); type: cell-based; conditions: for KLF15 reporter activity, primary screening assay: 1 μM, 24 hr, vs DMSO; for maximal KLF15 reporter activity: dose escalation, at similar concentrations to DEX
Description: A stable reporter assay directed at KLF15 promoter region (4.3 kb region) was generated in human podocytes, a fragment of human KLF15 promoter upstream of the start codon, by amplifying and subcloning it into the firefly luciferase reporter plasmid (co-transfection with renilla to serve as internal controls). KLF15 promoter activity is measured as a ratio of luciferase to renilla activity. Using this reporter cell line, a cell-based HTS assay was developed using recently reported cell-seeding methodology specific to cultured podocytes (16).

human podocytes [2] = assay: Toxicity to human podocytes in primary screening assay (Renilla, cell viability); type: cell-based; conditions: 1 μM, 24 hr
Description: (§1) After the synthesis of these novel analogues, a primary screening assay was conducted.

KLF15 reporter = KLF15 reporter activity in LPS-treated human podocytes (podocyte stress model); type: cell-based
Description: (§2) FIG. 10A-D show representative data illustrating the dose-response curve and EC50 (FIG. 10A), KLF15 reporter activity (FIG. 10B), and Renilla activity (cell viability) (FIG. 10C) in LPS-treated HP, and the therapeutic efficacy in abrogating albuminuria (biomarker of kidney disease) in LPS-treated mice (FIG. 10D).
as §1

human podocytes [3] = assay: Podocyte survival (Renilla, cell viability) after LPS treatment; type: cell-based; conditions: LPS-treated human podocytes
Description: as §2, §1

LPS-treated mice = assay: LPS-induced albuminuria murine model; type: in vivo; conditions: C57BL/6 mice, LPS 10 μg/g, subcutaneous minipump 3.5 μg/day for 48 hours, vs DMSO
Description: Referring to FIG. 10D, C57BL/6 mice were treated with lipopolysaccharide (LPS) at dose of 10 μg/g in two divided doses 24 hours apart intraperitoneally to induce podocyte injury and albuminuria.

[4] = Equilibrium solubility in aqueous buffers; type: physicochemical
Description: The pH 2.0 buffer was prepared by combining 50 mL of 0.2 M KCl with 150 mL of H2O, and then adjusting to pH 2.0 with 10 N HCl. […] The pH 7.4 buffer was prepared by combining 50 mL of 0.2 M KH2PO4 with 150 mL of H2O, and then adjusting to pH 7.4 with 10 N NaOH. At least 0.3 mg of powder for each lead compound was combined with 1 mL of each buffer to make a ≥0.3 mg/mL mixture. These samples were shaken on a Thermomixer® overnight at room temperature. The samples were then centrifuged for 10 minutes at 14,000 rpm. The supernatant was sampled and diluted in duplicate 10-, 100-, 1,000-, and 10,000-fold into a mixture of 1:1 buffer:acetonitrile (ACN) prior to analysis. […] Standard concentrations ranged from 1.0 μM to 0.3 nM.

[5] = Stability in pH 7.4 phosphate buffer; type: physicochemical; conditions: 37° C., 1 μM
Description: Studies were carried out in pH 7.4 phosphate buffer. The buffer was prepared by combining 50 mL of 0.2 M KH2PO4 with 150 mL of H2O, and then adjusting to pH 7.4 with 10 N NaOH. The buffer was adjusted to pH 7.4 prior to initiating the experiments. […] Aliquots of the DMSO solutions were dosed into 0.5 mL of matrix, which had been pre-warmed to 37° C., at a final lead compound concentration of 1 μM. Individual tubes were dosed for each timepoint. The vials were kept in a benchtop Thermomixer for the duration of the experiment. At each time point (0, 30, 60, and 120 minutes), an equal volume of acetonitrile was added to the appropriate tubes. Samples were stored at 4° C. until the end of the experiment. After the final time point was sampled, the plate was mixed and then centrifuged at 3,000 rpm for 10 minutes. Aliquots of the supernatant were removed, diluted 1:1 into distilled water, and analyzed by LC-MS/MS.

human liver microsomes = assay: Stability in human liver microsomes
Description: Mixed-gender human liver microsomes (Lot #1010420) were purchased from XenoTech. The reaction mixture, minus NADPH, was prepared as described below. […] The control compound, testosterone, was run simultaneously with the lead compounds in a separate reaction. The reaction mixture (without cofactor) was equilibrated in a shaking water bath at 37° C. for 3 minutes. The reaction was initiated by the addition of the cofactor, and the mixture was incubated in a shaking water bath at 37° C. Aliquots (100 μL) were withdrawn at 0, 10, 20, 30, and 60 minutes. Each lead compound and testosterone samples were immediately combined with 400 μL of ice-cold 50/50 acetonitrile (ACN)/H2O containing 0.1% formic acid and internal standard to terminate the reaction. The samples were then mixed and centrifuged to precipitate proteins. All samples were assayed by LC-MS/MS using electrospray ionization. The peak area response ratio (PARR) to internal standard was compared to the PARR at time 0 to determine the percent remaining at each time point. Half-lives and clearance were calculated using GraphPad software, fitting to a single-phase exponential decay equation.

[6] = tested on: Caco-2 cells (clone C2BBe1); assay: Caco-2 permeability; type: in vitro ADME; conditions: for Papp AVG / Papp R1 / Recovery: 5 μM, 120 minutes; for Efflux Ratio / Significant Efflux: Caco-2; for Absorption Potential Classification: Caco-2, from Papp (A-to-B)
Description: Caco-2 cells (clone C2BBe1) were obtained from American Type Culture Collection (Manassas, VA). Cell monolayers were grown to confluence on collagen-coated, microporous membranes in 12-well assay plates. Details of the plates and their certification are shown below. The permeability assay buffer was Hanks' balanced salt solution containing 10 mM HEPES and 15 mM glucose at a pH of 7.4. The buffer in the receiver chamber also contained 1% bovine serum albumin. The dosing solution concentration was 5 μM of lead compound in the assay buffer. Cell monolayers were dosed on the apical side (A-to-B) or basolateral side (B-to-A) and incubated at 37° C. with 5% CO2 in a humidified incubator. Samples were taken from the donor and receiver chambers at 120 minutes. Each determination was performed in duplicate. The flux of lucifer yellow was also measured post-experimentally for each monolayer to ensure no damage was inflicted to the cell monolayers during the flux period. […] The apparent permeability (Papp) and percent recovery were calculated and provided.

KLF15 promoter [7] = assay: KLF15 promoter activity in human podocytes, KLF15 agonist combined with dexamethasone; type: cell-based; conditions: for KLF15 promoter activity, single agent: alone (DEX 1 μM), vs DMSO-treated human podocytes; for KLF15 promoter activity, combination with DEX: vs DEX 1 μM
[8] = pH 2, room temperature overnight
[9] = pH 4, room temperature overnight
[10] = pH 7.4, room temperature overnight
[11] = human liver microsomes, 1 μM, 37° C.

Compound	KLF15 reporter activity, primary screening assay (KLF15 promoter [1])	maximal KLF15 reporter activity (KLF15 promoter [1])	toxicity to human podocytes (human podocytes [2])	KLF15 reporter activity after LPS treatment (KLF15 reporter)	podocyte survival after LPS treatment (human podocytes [3])	albuminuria (LPS-treated mice)	Solubility AVG [4, 8] [µM]	Solubility R1 [4, 8] [µM]	Solubility AVG [4, 9] [µM]	Solubility R1 [4, 9] [µM]	Solubility AVG [4, 10] [µM]	Solubility R1 [4, 10] [µM]	Percent Remaining 0 min [5]	Percent Remaining 30 min [5]	Percent Remaining 60 min [5]	Percent Remaining 120 min [5]	Papp AVG ([6]; A-to-B)	Papp R1 ([6]; A-to-B)	Recovery ([6]; A-to-B) [%]	Papp AVG ([6]; B-to-A)	other results
CSc1ccc(NC(=O)Nc2ccc(B3OC(C)(C)C(C)(C)O3)cc2)cc1 [BT412]	significantly induced KLF15 reporter activity	higher maximal KLF15 reporter activity	no observed toxicity	improved KLF15 reporter activity	improved; also recorded: improve podocyte survival	–	–	–	–	–	–	–	–	–	–	–	–	–	–	–	–
CSc1ccc(NC(=O)c2ccc(O)cc2)cc1 [BT501]	significantly induced KLF15 reporter activity	higher maximal KLF15 reporter activity	no observed toxicity	–	improve podocyte survival	significantly reduced albuminuria	97.7 (≈ 25.3 µg/mL)	99.7 (≈ 25.9 µg/mL)	153 (≈ 39.7 µg/mL)	157 (≈ 40.7 µg/mL)	269 (≈ 69.8 µg/mL)	279 (≈ 72.4 µg/mL)	100	88.4	92.1	87.7	35.5 10^−6 cm/s	32.5 10^−6 cm/s	66.7	35 10^−6 cm/s	CLint (intrinsic clearance) (human liver microsomes; human, microsomes): 0.0387 mL/min/mg protein; Half-Life (human liver microsomes; human, microsomes): 35.8 min; Papp R1 ([6]; B-to-A): 32.5 10^−6 cm/s; Recovery ([6]; B-to-A): 81.7%; Efflux Ratio [6]: 0.987; Significant Efflux [6]: No (Significant Efflux: ER ≥ 2.0 and Papp (B-to-A) ≥ 1.0 × 10^−6 cm/s); Absorption Potential Classification [6]: High (Papp (A-to-B) ≥ 1.0 × 10^−6 cm/s: High); KLF15 promoter activity, single agent (KLF15 promoter [7]): significantly induced KLF15 promoter activity; KLF15 promoter activity, combination with DEX (KLF15 promoter [7]; compound 0.5 μM + DEX 0.5 μM): synergistic effect
CSc1ccc(NC(=O)Nc2ccc(C#N)cn2)cc1 [BT502]	significantly induced KLF15 reporter activity	higher maximal KLF15 reporter activity	no observed toxicity	improved KLF15 reporter activity	improved	significantly reduced albuminuria	22.2 (≈ 6.31 µg/mL)	21.8 (≈ 6.2 µg/mL)	10.4 (≈ 2.96 µg/mL)	10.4 (≈ 2.96 µg/mL)	28.1 (≈ 7.99 µg/mL)	28.4 (≈ 8.08 µg/mL)	100	99.7	87	88.7	15.2 10^−6 cm/s	14.6 10^−6 cm/s	63.1	7.34 10^−6 cm/s	Half-Life (human liver microsomes; [11]): 17 min; Percent Remaining 0 min (human liver microsomes; [11]): 100; Percent Remaining 10 min (human liver microsomes; [11]): 63.9; Percent Remaining 20 min (human liver microsomes; [11]): 45.3; Percent Remaining 30 min (human liver microsomes; [11]): 29.6; Percent Remaining 60 min (human liver microsomes; [11]): 8.53; CLint (intrinsic clearance) (human liver microsomes; human liver microsomes, Clint = k/P): 0.0813 mL/min/mg protein; Papp R1 ([6]; B-to-A): 6.35 10^−6 cm/s; Recovery ([6]; B-to-A): 67.1%; Efflux Ratio [6]: 0.481; Significant Efflux [6]: No (Significant Efflux: ER ≥ 2.0 and Papp (B-to-A) ≥ 1.0 × 10^−6 cm/s); Absorption Potential Classification [6]: High (Papp (A-to-B) ≥ 1.0 × 10^−6 cm/s: High); KLF15 promoter activity, single agent (KLF15 promoter [7]): significantly induced KLF15 promoter activity; KLF15 promoter activity, combination with DEX (KLF15 promoter [7]; compound 100 nM + DEX 0.5 μM): synergistic effect; KLF15 promoter activity, combination with DEX (KLF15 promoter [7]; compound 0.5 μM + DEX 0.5 μM): synergistic effect
CC1(C)OB(c2ccc(C(N)=NO)cc2)OC1(C)C [BT506]	–	–	Toxicity	–	–	–	–	–	–	–	–	–	–	–	–	–	–	–	–	–	–
CSc1ccc(-c2nc(-c3ccc(O)cc3)no2)cc1 [BT514]	significantly induced KLF15 reporter activity	–	no observed toxicity	improved KLF15 reporter activity	improved; also recorded: improve podocyte survival	–	–	–	–	–	–	–	–	–	–	–	–	–	–	–	–
C[C@@H]1C[C@H]2[C@@H]3CCC4=CC(=O)C=C[C@]4(C)[C@@]3(F)[C@@H](O)C[C@]2(C)[C@@]1(O)C(=O)CO [DEX, dexamethasone, reference compound]	–	–	–	–	–	–	–	–	–	–	–	–	–	–	–	–	–	–	–	–	pEC50 (KLF15 promoter [1]; dose-response curve, human podocytes, luciferase/renilla): 5.27
